Measured values taken from patent US7247634B2, “Rifamycin derivatives effective against drug-resistant microbes” (Cumbre Pharmaceuticals Inc., priority 2004, dated 2007).
≈ marks a conversion by molar mass, not a printed value.

Experiments:
Format in all cases: cell-based
[1] = system: Staphylococcus epidermidis ATCC12228; assay: MIC, microbroth dilution (NCCLS); settings: rifS strain, Cation-Adjusted Mueller-Hinton Broth, 37° C., read-out: Antimicrobial activity (MIC)
[2] = system: Escherichia coli ATCC25922; assay: MIC, microbroth dilution (NCCLS); settings: rifS strain, Cation-Adjusted Mueller-Hinton Broth, 37° C., read-out: Antimicrobial activity (MIC)
[3] = system: Staphylococcus aureus ATCC29213; assay: MIC, microbroth dilution (NCCLS); settings: rifS strain, Cation-Adjusted Mueller-Hinton Broth, 37° C., read-out: Antimicrobial activity (MIC)
[4] = system: Staphylococcus aureus EN1252a gyrA^S84L grlA^S80F; assay: microbe, parasite or virus in culture; settings: read-out: Antimicrobial activity (MIC)
In short: (§1)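 MICs by NCCLS broth microdilution, incubation at 37 °C, in cation-adjusted Mueller-Hinton broth. Strains: rifampin-resistant S. aureus ATCC 29213 with rpoB D417Y or H418Y, and quinolone-resistant EN1252a carrying gyrA S84L plus grlA S80F.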

[5] = system: Staphylococcus aureus ATCC29213 rpoB^H418Y; assay: microbe, parasite or virus in culture; settings: ATCC29213, read-out: Antimicrobial activity (MIC)
In short: as §1

[6] = system: Staphylococcus aureus ATCC29213 rpoB^D417Y; assay: microbe, parasite or virus in culture; settings: ATCC29213, read-out: Antimicrobial activity (MIC)
In short: as §1

[7] = system: Haemophilus influenzae ATCC10211; assay: MIC, microbroth dilution (NCCLS); settings: rifS strain, BHI Broth with NAD and hematin, 37° C., read-out: Antimicrobial activity (MIC)
[8] = system: Streptococcus pyogenes ATCC19615; assay: MIC, microbroth dilution (NCCLS); settings: rifS strain, THY Broth, 37° C., read-out: Antimicrobial activity (MIC)
[9] = system: Enterococcus faecalis ATCC29212; assay: MIC, microbroth dilution (NCCLS); settings: rifS strain, BHI Broth, 37° C., read-out: Antimicrobial activity (MIC)
[10] = system: Streptococcus pneumoniae ATCC6303; assay: MIC, microbroth dilution (NCCLS); settings: rifS strain, THY Broth with 1 mg/mL catalase, 5% CO2, 37° C., read-out: Antimicrobial activity (MIC)
[11] = system: Mycobacterium smegmatis ATCC700084; assay: MIC, microbroth dilution (NCCLS); settings: Mycolicibacterium smegmatis, rifS strain, Middlebrook Broth plus ADC Enrichment, 37° C., read-out: Antimicrobial activity (MIC)

Structure (SMILES)	MIC [1] [µg/mL]	MIC [2] [µg/mL]	MIC [3] [µg/mL]	MIC [4] [µg/mL]	MIC [5] [µg/mL]	MIC [6] [µg/mL]	MIC [7] [µg/mL]	MIC [8] [µg/mL]	MIC [9] [µg/mL]	MIC [10] [µg/mL]	MIC [11] [µg/mL]
COc1c(N2CC(NC3CCN(C4=C5NC(=O)/C(C)=C\C=C\[C@H](C)[C@H](O)[C@@H](C)[C@@H](O)[C@@H](C)[C@H](OC(C)=O)[C@H](C)[C@@H](OC)/C=C/O[C@@]6(C)Oc7c(C)c(O)c(c(c7C6=O)C4=O)C5=O)CC3)C2)c(F)cc2c(=O)c(C(=O)O)cn(C3CC3)c12 [Example 33, 3-{4-[1-(3-Carboxy-1-cyclopropyl-6-fluoro-8-methoxy-4-oxo-1,4-dihydroquinolin-7-yl)-azetidin-3-ylamino]-piperidin-1-yl}rifamycin S]	0.008 to 0.063 (≈ 0.00712 to 0.056 µM)	0.125 to 8 (≈ 0.111 to 7.12 µM)	0.004 to 0.5 (≈ 0.00356 to 0.445 µM)	0.004 to 0.5 (≈ 0.00356 to 0.445 µM)	0.06 to 16 (≈ 0.0534 to 14.2 µM)	0.06 to 32 (≈ 0.0534 to 28.5 µM)	0.125 to 2 (≈ 0.111 to 1.78 µM)	0.008 to 0.063 (≈ 0.00712 to 0.056 µM)	2 to 32 (≈ 1.78 to 28.5 µM)	0.008 to 0.125 (≈ 0.00712 to 0.111 µM)	0.5 to 64
COc1c(N2CC3CCCN(C4CCN(C5=C6NC(=O)/C(C)=C\C=C\[C@H](C)[C@H](O)[C@@H](C)[C@@H](O)[C@@H](C)[C@H](OC(C)=O)[C@H](C)[C@@H](OC)/C=C/O[C@@]7(C)Oc8c(C)c(O)c(c(c8C7=O)C5=O)C6=O)CC4)C3C2)c(F)cc2c(=O)c(C(=O)O)cn(C3CC3)c12 (stereo partly shown) [Example 35, 3-{4-[6-(3-Carboxy-1-cyclopropyl-6-fluoro-8-methoxy-4-oxo-1,4-dihydroquinolin-7-yl)-octahydro-pyrrolo[3,4-b]-pyrridin-1-yl]-piperidin-1-yl}rifamycin S]	0.008 to 0.063 (≈ 0.00679 to 0.0535 µM)	0.125 to 8 (≈ 0.106 to 6.79 µM)	0.004 to 0.5 (≈ 0.00339 to 0.424 µM)	0.004 to 0.5 (≈ 0.00339 to 0.424 µM)	0.06 to 16 (≈ 0.0509 to 13.6 µM)	0.06 to 32 (≈ 0.0509 to 27.2 µM)	0.125 to 2 (≈ 0.106 to 1.7 µM)	0.008 to 0.063 (≈ 0.00679 to 0.0535 µM)	2 to 32 (≈ 1.7 to 27.2 µM)	0.008 to 0.125 (≈ 0.00679 to 0.106 µM)	0.5 to 64
CO[C@H]1/C=C/O[C@@]2(C)Oc3c(C)c(O)c4c(c3C2=O)C(=O)C(N2CCC(N3CCN(c5c(F)cc6c(=O)c(C(=O)O)cn(C7CC7)c6c5Cl)CC3)CC2)=C(NC(=O)/C(C)=C\C=C\[C@H](C)[C@H](O)[C@@H](C)[C@@H](O)[C@@H](C)[C@H](OC(C)=O)[C@@H]1C)C4=O [Example 38, 3-{4-[1-(3-Carboxy-8-chloro-1-cyclopropyl-6-fluoro-4-oxo-1,4-dihydroquinolin-7-yl)-piperazin-4-yl]-piperidin-1-yl}rifamycin S]	0.008 to 0.063 (≈ 0.007 to 0.0551 µM)	0.125 to 8 (≈ 0.109 to 7 µM)	0.004 to 0.5 (≈ 0.0035 to 0.438 µM)	0.004 to 0.5 (≈ 0.0035 to 0.438 µM)	0.06 to 16 (≈ 0.0525 to 14 µM)	0.06 to 32 (≈ 0.0525 to 28 µM)	0.125 to 2 (≈ 0.109 to 1.75 µM)	0.008 to 0.063 (≈ 0.007 to 0.0551 µM)	2 to 32 (≈ 1.75 to 28 µM)	0.008 to 0.125 (≈ 0.007 to 0.109 µM)	0.5 to 64
COc1c(N2CCC(C(C)NC3CCN(C4=C5NC(=O)/C(C)=C\C=C\[C@H](C)[C@H](O)[C@@H](C)[C@@H](O)[C@@H](C)[C@H](OC(C)=O)[C@H](C)[C@@H](OC)/C=C/O[C@@]6(C)Oc7c(C)c(O)c(c(c7C6=O)C4=O)C5=O)CC3)C2)c(F)cc2c(=O)c(C(=O)O)cn(C3CC3)c12 (stereo partly shown) [Example 39, 3-{4-[1-(3-Carboxy-1-cyclopropyl-6-fluoro-8-methoxy-4-oxo-1,4-dihydroquinolin-7-yl)-pyrrolidin-3-ylethylamino]-piperidin-1-yl}rifamycin S]	0.008 to 0.063 (≈ 0.00686 to 0.054 µM)	0.125 to 8 (≈ 0.107 to 6.86 µM)	0.004 to 0.5 (≈ 0.00343 to 0.429 µM)	0.004 to 0.5 (≈ 0.00343 to 0.429 µM)	0.06 to 16 (≈ 0.0514 to 13.7 µM)	0.06 to 32 (≈ 0.0514 to 27.4 µM)	0.125 to 2 (≈ 0.107 to 1.71 µM)	0.008 to 0.063 (≈ 0.00686 to 0.054 µM)	2 to 32 (≈ 1.71 to 27.4 µM)	0.008 to 0.125 (≈ 0.00686 to 0.107 µM)	0.5 to 64
COc1c(N2CCN(C(=O)C3CN(C4=C5NC(=O)/C(C)=C\C=C\[C@H](C)[C@H](O)[C@@H](C)[C@@H](O)[C@@H](C)[C@H](OC(C)=O)[C@H](C)[C@@H](OC)/C=C/O[C@@]6(C)Oc7c(C)c(O)c(c(c7C6=O)C4=O)C5=O)C3)CC2)c(F)cc2c(=O)c(C(=O)O)cn(C3CC3)c12 [Example 45, 3-{3-[4-(3-Carboxy-1-cyclopropyl-6-fluoro-8-methoxy-4-oxo-1,4-dihydroquinolin-7-yl)-piperazin-1-yl-carbonyl]-azetidin-1-yl}rifamycin S]	0.008 to 0.063 (≈ 0.00703 to 0.0554 µM)	0.125 to 8 (≈ 0.11 to 7.03 µM)	0.004 to 0.5 (≈ 0.00351 to 0.439 µM)	0.004 to 0.5 (≈ 0.00351 to 0.439 µM)	0.06 to 16 (≈ 0.0527 to 14.1 µM)	0.06 to 32 (≈ 0.0527 to 28.1 µM)	0.125 to 2 (≈ 0.11 to 1.76 µM)	0.008 to 0.063 (≈ 0.00703 to 0.0554 µM)	2 to 32 (≈ 1.76 to 28.1 µM)	0.008 to 0.125 (≈ 0.00703 to 0.11 µM)	0.5 to 64
